Results from PMC6409614, “BmTudor-sn Is a Binding Protein of Destruxin A in Silkworm Bm12 Cells” (Toxins, 2019).
Non-standard residues stand in square brackets, D forms with d. Residues, ends and D or L forms follow the SMILES beside them. dLac(3-vinyl) = C=CC[C@@H](O)C(=O)O; NMeV = CN[C@H](C(=O)O)C(C)C; NMeA = CN[C@@H](C)C(=O)O; βAla = NCCC(=O)O

Tests used:
[1] = cited from earlier work
Excerpt: (§1) DA has been previously reported to play a role in immune related pathways and in inducing the immunosuppression phenotype in insects. The majority of studies have focused on these roles, while few have addressed the mechanism of action in cells. […] Tudor-sn, a multifunctional protein, was reported to regulate do ...

V-ATPase = conditions: silkworm hemocytes; earlier work of the authors, no reference given; cited from earlier work
Excerpt: as §1

BmTudor-sn [2] = biological target: T1, BmTudor-sn (Bombyx mori, UniProt D9N4J4); experiment: bio-layer interferometry (ForteBio OctetQK), protein immobilised on biosensor; assay type: binding
T1 construct: gene Tudor-SN; endogenous protein in Bm12 cells (CETSA); four staphylococcal nuclease domains and a Tudor domain
T1 sequence (D9N4J4 1-888): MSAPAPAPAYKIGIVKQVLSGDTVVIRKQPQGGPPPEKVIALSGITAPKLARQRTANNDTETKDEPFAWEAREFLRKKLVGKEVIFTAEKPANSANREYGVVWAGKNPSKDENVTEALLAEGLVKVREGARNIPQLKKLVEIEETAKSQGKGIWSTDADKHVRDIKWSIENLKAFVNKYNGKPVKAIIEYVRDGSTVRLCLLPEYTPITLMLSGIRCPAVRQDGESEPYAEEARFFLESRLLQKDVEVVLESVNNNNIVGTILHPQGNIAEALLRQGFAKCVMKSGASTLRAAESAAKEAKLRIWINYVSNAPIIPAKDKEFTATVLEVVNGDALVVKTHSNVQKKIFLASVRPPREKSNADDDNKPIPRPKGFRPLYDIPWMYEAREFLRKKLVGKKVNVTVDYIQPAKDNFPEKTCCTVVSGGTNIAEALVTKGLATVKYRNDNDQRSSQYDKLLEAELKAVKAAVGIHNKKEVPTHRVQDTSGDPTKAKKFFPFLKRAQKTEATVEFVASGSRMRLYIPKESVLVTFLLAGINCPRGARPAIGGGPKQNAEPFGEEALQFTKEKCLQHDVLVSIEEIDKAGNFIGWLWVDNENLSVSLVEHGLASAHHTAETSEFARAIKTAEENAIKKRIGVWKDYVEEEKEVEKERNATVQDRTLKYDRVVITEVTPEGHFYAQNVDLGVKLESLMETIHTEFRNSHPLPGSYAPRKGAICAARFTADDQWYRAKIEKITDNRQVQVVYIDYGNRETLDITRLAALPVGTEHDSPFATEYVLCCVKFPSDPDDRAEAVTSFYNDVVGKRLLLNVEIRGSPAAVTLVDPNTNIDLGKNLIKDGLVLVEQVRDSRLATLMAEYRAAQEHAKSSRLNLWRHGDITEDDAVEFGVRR

BmTudor-sn [3] = biological target: T1, BmTudor-sn; experiment: cellular thermal shift assay (CETSA), western blot, endogenous protein in Bm12 cells; assay type: cell-based; conditions: 200 µg/mL DA; intact Bm12 cells heated at 37–58 °C
BmTudor-sn [4] = experiment: Bio-Layer Interferometry (BLI), BmTudor-sn; assay type: binding, Bombyx mori; conditions: PBST (0.05% Tween20, 5% DMSO)
Procedure: (§2) All proteins were prepared by eukaryotic expression in the Sf9 cell line. These were tagged with His-tag and purified by nickel affinity chromatography. BLI analysis was performed on a ForteBio OctetQK System (K2, Pall Fortebio Corp, Menlo Park, CA, USA). Generally, the protein samples were coupled with a biosensor for immobilization. Serial not gradient dilutions of DA (500, 250, 125, 62.5, 31.25, 15.63, and 7.813 μM) were used for treatment. PBST buffer (0.05% Tween20, 5% DMSO) was used for the reference and dilution buffers. The working procedure was baseline for 60 s, association for 60 s, and dissociation for 60 s. Finally, the raw data were processed with Data Analysis Software (9.0, Pall Fortebio Corp, Menlo Park, CA, USA).

BmPiwi [5] = experiment: Bio-Layer Interferometry (BLI), BmPiwi; assay type: binding, Bombyx mori; conditions: recombinant protein from Sf9 cells, DA 7.813-500 μM
Procedure: as §2

BmAGO2 [6] = experiment: Bio-Layer Interferometry (BLI), BmAGO2; assay type: binding, Bombyx mori; conditions: recombinant protein from Sf9 cells, DA 7.813-500 μM
Procedure: as §2

BmTudor-sn [7] = experiment: Immunoblot after proteolysis, BmTudor-sn; assay type: cell-based, Bombyx mori; conditions: Bm12 cell extracts from different DA treatments, proteinase K, western blot
Procedure: (§3) The Bm12 cell line was used to conduct the CETSA and immunoblot experiments. Cells were treated with DA. For immunoblotting, cell extracts from different DA treatments, collected after incubation with RIPA lysis buffer, were digested with proteinase K and then heated in water at 90 °C for 5 min. Samples were analyzed using SDS-PAGE and transferred to PVDF membranes. The membranes were then incubated in skim milk powder, followed by incubation with primary and HRP antibodies. ECL was added to the chemiluminescence reaction. For CETSA, Bm12 cells, treated with 200 µg/mL DA, were divided into 8 aliquots, heated at 37–58 °C, and lysed by a freeze-thaw cycle. The supernatants of the lysed cells were used for the western blot analysis as described above.

BmTudor-sn [8] = experiment: Cellular thermal shift assay (CETSA), BmTudor-sn; assay type: cell-based, Bombyx mori; conditions: Bm12 cells
Procedure: as §3

BmPiwi [9] = experiment: Cellular thermal shift assay (CETSA), BmPiwi; assay type: cell-based, Bombyx mori; conditions: Bm12 cells, DA 200 µg/mL, 37–58 °C, freeze-thaw lysis, western blot of supernatant
Procedure: as §3

BmAGO2 [10] = experiment: Cellular thermal shift assay (CETSA), BmAGO2; assay type: cell-based, Bombyx mori; conditions: Bm12 cells, DA 200 µg/mL, 37–58 °C, freeze-thaw lysis, western blot of supernatant
Procedure: as §3

Bm12 cells = experiment: RNAi and viability assessment under DA treatment; assay type: cell-based, silkworm (Bombyx mori)
Procedure: SiRNAs were prepared by synthesis in vitro. The sequence of BmTudor-sn siRNA is 5ʹ-[…]-3ʹ and 5ʹ-[…]-3ʹ. SiRNA and FuGENE transfection reagent were each diluted in serum-free medium and then mixed. The mixture was added to Bm12 cells after the DA treatment. Viability and toxicity assessment were performed following the manufacturer’s instructions.

BmTudor-sn with BmAGO1 = experiment: Insect two-hybrid (I2H), interaction of BmTudor-sn and mutants with BmAGO1; assay type: cell-based, Bombyx mori; conditions: Sf9 cells, luciferase; for mutants with signal different from wild type: p < 0.05, DMRT
Procedure: BmTudor-sn and mutants were cloned into the I2H vector pIE-AD, and BmAGO1 was cloned into the I2H vector pIE-DBD using the Gateway system. These vectors and the luciferase vector were co-transfected into the Sf9 cell line and treated with DA at 0.02 and 0.2 µg/mL. The luciferase activities in the cell extracts were determined using a Luciferase Reporter Assay System (Promega, Beijing, China) and Synergy™ H1 (BioTek, Winooski, VT, USA).

BmTudor-sn [11] = experiment: Transcriptional level of BmTudor-sn; assay type: cell-based, Bombyx mori; conditions: by DA; method not described
BmPiwi [12] = experiment: Transcriptional level of BmPiwi; assay type: cell-based, Bombyx mori; conditions: by DA; method not described
BmAGO2 [13] = experiment: Transcriptional level of BmAGO2; assay type: cell-based, Bombyx mori; conditions: by DA; method not described
BmTudor-sn [14] = conditions: Bm12 cells; specific proteinase; earlier DARTS analysis of the authors; reference not given; cited from earlier work
Excerpt: Molecular docking is a reasonable, efficient, and convenient strategy to narrow down candidates among all proteins compared to other methods such as heterologous expression and kinetic analysis, which require verification one by one. However, it seems paradoxical in this study that proteins with the top docking scores were not the binding protein [24]. Actually, docking is a completely theoretical speculation, and other experiments are required to draw a conclusion. H ...

HSP = conditions: in vitro molecular interaction validation; cited from earlier work
Excerpt: (§4) Destruxins are cyclodepsipeptidic mycotoxins, and there are 39 analogues. […] Because of the immunosuppression activity of DA in insects, the majority of studies have focused on the mechanism of action of the effect of DA on the immune-related pathway or st ...

[15] = tested on: heat shock proteins (HSPs); conditions: cultured cells (Bm12), DARTS; cited from earlier work
Excerpt: as §4

insects = conditions: cited from earlier work
Excerpt: as §4

[16] = DA 0.02 or 0.2 µg/mL, by mutant site

Molecule: Destruxin B [DB]
- anti-cancer activity [1]: clear anti-cancer activity
- sensitivity to V-ATPase compared with DA (V-ATPase): more sensitive to V-ATPase than DA in silkworm hemocytes

Molecule: C=CC[C@H]1OC(=O)CCNC(=O)[C@H](C)N(C)C(=O)[C@H](C(C)C)N(C)C(=O)[C@H]([C@@H](C)CC)NC(=O)[C@@H]2CCCN2C1=O [DA, Destruxin A] (cyclo([dLac(3-vinyl)]PI[NMeV][NMeA][βAla])) [listing 1 of 2 here]
- Kd (BmTudor-sn [2]): 587 µM
- thermal stability shift (BmTudor-sn [3]): the thermal stability of BmTudor-sn increased following DA binding modification

Molecule: C=CC[C@H]1OC(=O)CCNC(=O)[C@H](C)N(C)C(=O)[C@H](C(C)C)N(C)C(=O)[C@H]([C@@H](C)CC)NC(=O)[C@@H]2CCCN2C1=O [DA, Destruxin A] (cyclo([dLac(3-vinyl)]PI[NMeV][NMeA][βAla])) [listing 2 of 2 here]
- Kd (BmTudor-sn [4]; BLI, ForteBio OctetQK, His-tagged recombinant protein from Sf9 cells immobilized, association 60 s, dissociation 60 s, DA 7.813-500 μM, read-out: affinity constant KD): 587 µM
- interaction with DA (BmTudor-sn [4]; BLI, DA 125, 250 and 500 µM): interacts with BmTudor-sn at concentrations of 125 µm, 250 µm, and 500 µm
- BLI Response (BmTudor-sn [4]; DA 7.81 uM): -0.0024
- BLI Response (BmTudor-sn [4]; DA 15.6 uM): -0.0035
- BLI Response (BmTudor-sn [4]; DA 31.3 uM): -0.0012
- BLI Response (BmTudor-sn [4]; DA 62.5 uM): 0.0001
- BLI Response (BmTudor-sn [4]; DA 125 uM): 0.0032
- BLI Response (BmTudor-sn [4]; DA 250 uM): 0.0086
- BLI Response (BmTudor-sn [4]; DA 500 uM): 0.0071
- interaction with DA (BmPiwi [5]): not BmPiwi or BmAGO2
- interaction with DA (BmAGO2 [6]): not BmPiwi or BmAGO2
- protein stability under proteolysis (immunoblot) (BmTudor-sn [7]): stable with DA treatment in a dosage-dependent manner under proteolysis
- thermal stability (CETSA), dose dependence (BmTudor-sn [8]; 200 µg/mL versus lower dose): BmTudor-sn showed thermal stability with the 200 µg/mL treatment and not at the lower dose
- thermal stability (CETSA) (BmTudor-sn [8]; DA 200 µg/mL, 37–58 °C, freeze-thaw lysis, western blot of supernatant): thermal stability of BmTudor-sn increased following DA binding modification
- thermal stability shift (CETSA) (BmPiwi [9]): no thermal stability shift in BmPiwi and BmAGO2
- thermal stability shift (CETSA) (BmAGO2 [10]): no thermal stability shift in BmPiwi and BmAGO2
- viability of BmTudor-sn knock down cells (Bm12 cells; Bm12 cells under DA treatment, * p < 0.05, t test): higher viability under DA treatment
- increase in viability with BmTudor-sn knockdown (Bm12 cells; Bm12 cells, BmTudor-sn siRNA, DA treatment): approximately 20%
- mutants with signal different from wild type (BmTudor-sn with BmAGO1; DA 0.02 µg/mL): 2 mutants, Ser707Ala and leu704Ala
- mutants with signal different from wild type (BmTudor-sn with BmAGO1; DA 0.2 µg/mL): 3 mutants, Ser701Ala, Leu704Ala, and Tyr708Ala
- domain of differing mutants (BmTudor-sn with BmAGO1; DA 0.02 and 0.2 µg/mL): in the Tudor domain (Ser707, Leu704, Ser701, Tyr708) rather than the SN3 (Lys492) and SN4 (Lys582) domains
- interaction site at both concentrations (BmTudor-sn with BmAGO1; DA 0.02 and 0.2 µg/mL): interacts with BmTudor-sn at both concentrations at Leu704
- effect on BmTudor-sn/BmAGO1 pair interaction, impeded (BmTudor-sn with BmAGO1; [16]): impeded the protein pair interaction at Ser707 and Tyr708
- effect on BmTudor-sn/BmAGO1 pair interaction, promoted (BmTudor-sn with BmAGO1; [16]): promoted it at Leu704 and Ser701
- upregulation at the transcriptional level (BmTudor-sn [11]): 2-3 fold
- upregulation at the transcriptional level (BmPiwi [12]): 2-3 fold
- upregulation at the transcriptional level (BmAGO2 [13]): 2-3 fold
- appearance of BmTudor-sn in DARTS (BmTudor-sn [14]): only appeared in the 200 µg/mL treatment with a specific proteinase and not at the lower dosage and with other proteinases
- binding to an HSP (HSP): binds to an HSP in vitro
- induction of heat shock proteins [15]: greatly induced heat shock proteins (HSPs) in cultured cells
- insecticidal effect and anti-immunity activity (insects): strong insecticidal effect and anti-immunity activity
